The values that follow come from patent US11866414B2, “Substituted heterocyclic compounds” (BRISTOL-MYERS SQUIBB COMPANY, priority 2021, dated 2024).

Bounds are passed on as bounds.

The subject of series [1] is IFNα-induced STAT phosphorylation (pSTAT5). In words: IFNα-induced STAT phosphorylation in human whole blood. In kind it is cell-based. The following applies: 1 h compound, 1000 U/mL IFNα A/D 15 min, CD3 positive population, read-out: Human Whole blood IFNa pSTAT5 IC50. The method, then: IFNα-Induced STAT Phosphorylation in Human Whole Blood
After an hour long incubation with compound, human whole blood (drawn with ACD-A as anticoagulant) was stimulated with 1000 U/mL recombinant human IFNα A/D (R&D Systems 11200-2) for 15 min. The stimulation was stopped by adding Fix/Lyse buffer (BD 558049). Cells were stained with a CD3 FITC antibody (BD 555916), washed, and permeabilized on ice using Perm III buffer (BD 558050). Cells were then stained with an Alexa-Fluor 647 pSTAT5 (pY694) antibody (BD 612599) for 60 min prior to analysis on the iQue Plus. The amount of pSTAT5 expression was quantitated by median fluorescence intensity after gating on the CD3 positive population.

Another series is described as follows: in vitro. As to conditions: human, Caco-2, pH 7.4.

Consider `CNC(=O)c1nnc(NC(=O)C2CC2)cc1Nc1cccc(-c2cnn(CCF)n2)c1OC` [Example 2, 6-cyclopropaneamido-4-({3-[2-(2-fluoroethyl)-2H-1,2,3-triazol-4-yl]-2-methoxyphenyl}amino)-N—(^2H3)methylpyridazine-3-carboxamide], for which the 50% inhibitory concentration (IC50) in series [1] came to 30 nM.

Regarding `CNC(=O)c1nnc(NC(=O)C2CC2)cc1Nc1cccc(-c2cnn(CC(F)F)n2)c1OC` [Example 3, 6-cyclopropaneamido-4-({3-[2-(2,2-difluoroethyl)-2H-1,2,3-triazol-4-yl]-2-methoxyphenyl}amino)-N—(^2H3)methylpyridazine-3-carboxamide], the IC50 in series [1] came out at 220 nM.

As to `[2H]C([2H])([2H])NC(=O)c1nnc(Nc2cc(C)n(C)n2)cc1Nc1cccc(-c2cnn(C)n2)c1OC` [Example 6, 6-[(1,5-dimethyl-1H-pyrazol-3-yl)amino]-4-{[2-methoxy-3-(2-methyl-2H-1,2,3-triazol-4-yl)phenyl]amino}-N—(^2H3)methylpyridazine-3-carboxamide], the IC50 in series [1] worked out at 20 nM. Besides, in “in vitro”, the apical-to-basolateral permeability (Papp A→B) at 2 h, 3 μM worked out at 7.4 ×10⁻⁶ cm/s and the efflux ratio at 2 h, 3 μM was 0.9.

As to `[2H]C([2H])([2H])NC(=O)c1nnc(Nc2ccccn2)cc1Nc1cccc(-c2cnn(C)n2)c1OC` [Example 8, 4-{[2-methoxy-3-(2-methyl-2H-1,2,3-triazol-4-yl)phenyl]amino}-N—(^2H3)methyl-6-[(pyridin-2-yl)amino]pyridazine-3-carboxamide], in series [1], the IC50 amounted to 230 nM. For the same compound, in “in vitro”, the Papp A→B at 2 h, 3 μM worked out at 1.9 ×10⁻⁶ cm/s and the efflux ratio at 2 h, 3 μM was less than 0.8.

For `CCn1ncc(-c2c(F)ccc(Nc3cc(NC(=O)C4CC4)nnc3C(=O)NC)c2OC)n1` [Example 10, 6-cyclopropaneamido-4-{[3-(2-ethyl-2H-1,2,3-triazol-4-yl)-4-fluoro-2-methoxyphenyl]amino}-N—(^2H3)methylpyridazine-3-carboxamide], the half-inhibitory concentration (IC50) in series [1] stood at 290 nM.

For `CNC(=O)c1nnc(NC(=O)C2CC2)cc1Nc1cc(F)cc(-c2cnn(C3CC3)n2)c1OC` [Example 12, 6-cyclopropaneamido-4-{[3-(2-cyclopropyl-2H-1,2,3-triazol-4-yl)-5-fluoro-2-methoxyphenyl]amino}-N—(^2H3)methylpyridazine-3-carboxamide], in series [1], the half-maximal inhibitory concentration (IC50) is 230 nM.

Take `CNC(=O)c1nnc(NC(=O)[C@@H]2CC23CC3)cc1Nc1cccc(-c2cnn(C)n2)c1OC` [Example 13, 4-{[2-methoxy-3-(2-methyl-2H-1,2,3-triazol-4-yl)phenyl]amino}-N—(^2H3)methyl-6-[(1R)-spiro[2.2]pentane-1-amido]pyridazine-3-carboxamide]: the IC50 in series [1] came to 170 nM.

Regarding `CNC(=O)c1nnc(NC(=O)C2CC2)cc1Nc1nccc(-c2cnn(C3CC3)n2)c1OC` [Example 14, 6-cyclopropaneamido-4-{[4-(2-cyclopropyl-2H-1,2,3-triazol-4-yl)-3-methoxypyridin-2-yl]amino}-N—(^2H3)methylpyridazine-3-carboxamide], the IC50 in series [1] came to 190 nM.

Regarding `CCn1ncc(-c2cc(Cl)cc(Nc3cc(NC(=O)C4CC4)nnc3C(=O)NC)c2OC)n1` [Example 15, 4-{[5-chloro-3-(2-ethyl-2H-1,2,3-triazol-4-yl)-2-methoxyphenyl]amino}-6-cyclopropaneamido-N—(^2H3)methylpyridazine-3-carboxamide], the half-inhibitory concentration (IC50) in series [1] was 470 nM.

On to `CNC(=O)c1nnc(NC(=O)C2CC2)cc1Nc1ccc(F)c(-c2cnn(C3CC3)n2)c1OC` [Example 16, 6-cyclopropaneamido-4-{[3-(2-cyclopropyl-2H-1,2,3-triazol-4-yl)-4-fluoro-2-methoxyphenyl]amino}-N—(^2H3)methylpyridazine-3-carboxamide], for which the half-inhibitory concentration (IC50) in series [1] turned out to be 1400 nM.

For the compound `CNC(=O)c1nnc(NC(=O)C2CC2)cc1Nc1cc(C)cc(-c2cnn(C)n2)c1OC` [Example 17, 6-cyclopropaneamido-4-{[2-methoxy-5-methyl-3-(2-methyl-2H-1,2,3-triazol-4-yl)phenyl]amino}-N—(^2H3)methylpyridazine-3-carboxamide], the IC50 in series [1] was found to be 40 nM.

Regarding `CNC(=O)c1nnc(NC(=O)C2CC2)cc1Nc1ccc(F)c(-c2cnn(C)n2)c1OC` [Example 18, 6-cyclopropaneamido-4-{[4-fluoro-2-methoxy-3-(2-methyl-2H-1,2,3-triazol-4-yl)phenyl]amino}-N—(^2H3)methylpyridazine-3-carboxamide], the half-inhibitory concentration (IC50) in series [1] was determined as 230 nM.

Consider `[2H]C([2H])([2H])NC(=O)c1nnc(NC(=O)C2CC2)cc1Nc1cc(F)c(C)c(-c2cnn(C)n2)c1OC` [Example 19, 6-(cyclopropanecarboxamido)-4-((5-fluoro-2-methoxy-4-methyl-3-(2-methyl-2H-1,2,3-triazol-4-yl)phenyl)amino)-N-(methyl-d3)pyridazine-3-carboxamide], for which the IC50 in series [1] turned out to be 430 nM. In “in vitro”, the Papp A→B at 2 h, 3 μM came out at 18.8 ×10⁻⁶ cm/s and the efflux ratio at 2 h, 3 μM worked out at 0.7.

In the case of `[2H]C([2H])([2H])NC(=O)c1nnc(NC(=O)C2CC2)cc1Nc1cccc(-c2nn(C)nc2CC)c1OC` [Example 20, 6-(cyclopropanecarboxamido)-4-((3-(5-ethyl-2-methyl-2H-1,2,3-triazol-4-yl)-2-methoxyphenyl)amino)-N-(methyl-d3)pyridazine-3-carboxamide], in series [1], the IC50 was determined as 210 nM. Further, in the series “in vitro”, the Papp A→B at 2 h, 3 μM stood at 17 ×10⁻⁶ cm/s and the efflux ratio at 2 h, 3 μM was determined as 1.1.

As for `[2H]C([2H])([2H])NC(=O)c1nnc(NC(=O)C2CC2)cc1Nc1cc(CC)cc(-c2cnn(C)n2)c1OC` [Example 21, 6-(cyclopropanecarboxamido)-4-((5-ethyl-2-methoxy-3-(2-methyl-2H-1,2,3-triazol-4-yl)phenyl)amino)-N-(methyl-d3)pyridazine-3-carboxamide], in series [1], the IC50 turned out to be 230 nM. Also, in the series “in vitro”, the Papp A→B at 2 h, 3 μM amounted to 33.6 ×10⁻⁶ cm/s and the efflux ratio at 2 h, 3 μM came out at 0.5.

As to `[2H]C([2H])([2H])NC(=O)c1nnc(NC(=O)C2CC2)cc1Nc1c(F)ccc(-c2cnn(C)n2)c1OC` [Example 22, 6-(cyclopropanecarboxamido)-4-((6-fluoro-2-methoxy-3-(2-methyl-2H-1,2,3-triazol-4-yl)phenyl)amino)-N-(methyl-d3)pyridazine-3-carboxamide], in series [1], the 50% inhibitory concentration (IC50) turned out to be 330 nM. Further, in the series “in vitro”, the Papp A→B at 2 h, 3 μM was 51.1 ×10⁻⁶ cm/s and the efflux ratio at 2 h, 3 μM amounted to 0.7.

Take `CNC(=O)c1nnc(NC(=O)N2CCC2)cc1Nc1cccc(-c2cnn(C)n2)c1OC` [Example 51, 6-[(azetidine-1-carbonyl)amino]-4-{[2-methoxy-3-(2-methyl-2H-1,2,3-triazol-4-yl)phenyl]amino}-N—(^2H3)methylpyridazine-3-carboxamide]: the IC50 in series [1] was found to be 110 nM.

Turning to `CNC(=O)c1nnc(NC(=O)C2CC2)cc1Nc1cccc(-c2cnn(C)n2)c1OC` [Example 52, 6-cyclopropaneamido-4-({2-methoxy-3-[2-(^2H3)methyl-2H-1,2,3-triazol-4-yl]phenyl}amino)-N—(^2H3)methylpyridazine-3-carboxamide], in series [1], the IC50 stood at 20 nM.

With `CNC(=O)c1nnc(NC(=O)C2CC2)cc1Nc1cccc(-c2cnn(C3COC3)n2)c1OC` [Example 53, 6-cyclopropaneamido-4-({2-methoxy-3-[2-(oxetan-3-yl)-2H-1,2,3-triazol-4-yl]phenyl}amino)-N—(^2H3)methylpyridazine-3-carboxamide], the IC50 in series [1] turned out to be 170 nM.

With `CNC(=O)c1nnc(NC(=O)C2CC2)cc1Nc1cccc(-c2cnn(C3CCC3)n2)c1OC` [Example 54, 4-{[3-(2-cyclobutyl-2H-1,2,3-triazol-4-yl)-2-methoxyphenyl]amino}-6-cyclopropaneamido-N—(^2H3)methylpyridazine-3-carboxamide], the half-maximal inhibitory concentration (IC50) in series [1] is 490 nM.

For the compound `CNC(=O)c1nnc(NC(=O)C2CC2)cc1Nc1ccc(C2CC2)c(-c2cnn(C)n2)c1OC` [Example 55, 6-cyclopropaneamido-4-{[4-cyclopropyl-2-methoxy-3-(2-methyl-2H-1,2,3-triazol-4-yl)phenyl]amino}-N—(^2H3)methylpyridazine-3-carboxamide], in series [1], the IC50 is 480 nM.

Consider `CNC(=O)c1nnc(NC(=O)C2CC2)cc1Nc1cccc(-c2cnn(C)n2)c1OC(F)F` [Example 56, 6-cyclopropaneamido-4-{[2-(difluoromethoxy)-3-(2-methyl-2H-1,2,3-triazol-4-yl)phenyl]amino}-N—(^2H3)methylpyridazine-3-carboxamide], for which the half-maximal inhibitory concentration (IC50) in series [1] is 290 nM.

For the compound `CCN(C)C(=O)Nc1cc(Nc2nccc(-c3cnn(C)n3)c2OC)c(C(=O)NC)nn1` [Example 58, 6-{[ethyl(methyl)carbamoyl]amino}-4-{[3-methoxy-4-(2-methyl-2H-1,2,3-triazol-4-yl)pyridin-2-yl]amino}-N—(^2H3)methylpyridazine-3-carboxamide], the IC50 in series [1] amounted to 230 nM.

Regarding `CNC(=O)c1nnc(NC(=O)N(C)C(C)C)cc1Nc1nccc(-c2cnn(C)n2)c1OC` [Example 59, 4-{[3-methoxy-4-(2-methyl-2H-1,2,3-triazol-4-yl)pyridin-2-yl]amino}-N—(^2H3)methyl-6-{[methyl(propan-2-yl)carbamoyl]amino}pyridazine-3-carboxamide], the half-inhibitory concentration (IC50) in series [1] was determined as 250 nM.

On to `CNC(=O)c1nnc(NC(=O)C2CC2)cc1Nc1nccc(-c2cnn(C)n2)c1OC(F)F` [Example 60, 6-cyclopropaneamido-4-{[3-(difluoromethoxy)-4-(2-methyl-2H-1,2,3-triazol-4-yl)pyridin-2-yl]amino}-N—(^2H3)methylpyridazine-3-carboxamide], for which the IC50 in series [1] was 130 nM.

As for `CC(C)(C)NCC(O)COc1cccc2c1CC(O)C(O)C2` (stereo not shown) [Nadolol, reference compound], in “in vitro”, the apparent permeability from apical to basolateral (Papp A→B) at 2 h, 3 μM turned out to be 2 ± 0.9 ×10⁻⁶ cm/s; the Papp B→A at 2 h, 3 μM is 2.5 ± 1.1 ×10⁻⁶ cm/s; the efflux ratio at 2 h, 3 μM was 1.3.

For orientation: IC50 means the concentration that inhibits the measured activity by half. For orientation: Papp A→B means the apparent permeability from the apical to the basolateral side of a cell layer. Read a high Papp A→B as fast passage. For orientation: efflux ratio means the permeability from basolateral to apical divided by that in the opposite direction, in the common usage. For orientation: Papp B→A means the apparent permeability from the basolateral to the apical side of a cell layer.
